BindingDB's records for PubMed 20126400 (University of Oklahoma, 2010)

How the values were obtained:
Assay in all cases: Ray2010 Assay 74
[1] = target: Glutamate receptor ionotropic, NMDA 2A (Homo sapiens, UniProt Q12879)
Excerpt: (§1) Table S2 shows raw Ki data for the current study combined with data collected from the literature for the ten additional compounds.

[2] = target: Sodium-dependent noradrenaline transporter (Homo sapiens, UniProt P23975)
Excerpt: as §1

D(2) dopamine receptor = D(2) dopamine receptor (Homo sapiens, UniProt P14416)
Excerpt: as §1

[3] = target: T1, Gamma-aminobutyric acid receptor subunit alpha-1 (Homo sapiens, UniProt P14867)
T1 sequence (P14867 whole entry): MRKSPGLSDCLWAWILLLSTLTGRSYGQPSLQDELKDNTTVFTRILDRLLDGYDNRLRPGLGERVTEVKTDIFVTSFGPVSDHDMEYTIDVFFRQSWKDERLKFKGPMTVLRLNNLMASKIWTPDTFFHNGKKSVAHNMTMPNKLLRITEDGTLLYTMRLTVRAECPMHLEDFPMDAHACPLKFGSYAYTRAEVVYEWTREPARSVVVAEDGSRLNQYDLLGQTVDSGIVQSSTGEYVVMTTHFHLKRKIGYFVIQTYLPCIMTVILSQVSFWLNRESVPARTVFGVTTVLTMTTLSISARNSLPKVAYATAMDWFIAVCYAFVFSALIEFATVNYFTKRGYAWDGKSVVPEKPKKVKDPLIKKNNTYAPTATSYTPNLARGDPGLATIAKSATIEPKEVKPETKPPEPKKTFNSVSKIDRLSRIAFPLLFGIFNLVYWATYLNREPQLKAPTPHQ
Excerpt: as §1

[4] = target: 5-hydroxytryptamine receptor 1E (Homo sapiens, UniProt P28566)
Chain of 5-hydroxytryptamine receptor 1E (P28566 whole entry): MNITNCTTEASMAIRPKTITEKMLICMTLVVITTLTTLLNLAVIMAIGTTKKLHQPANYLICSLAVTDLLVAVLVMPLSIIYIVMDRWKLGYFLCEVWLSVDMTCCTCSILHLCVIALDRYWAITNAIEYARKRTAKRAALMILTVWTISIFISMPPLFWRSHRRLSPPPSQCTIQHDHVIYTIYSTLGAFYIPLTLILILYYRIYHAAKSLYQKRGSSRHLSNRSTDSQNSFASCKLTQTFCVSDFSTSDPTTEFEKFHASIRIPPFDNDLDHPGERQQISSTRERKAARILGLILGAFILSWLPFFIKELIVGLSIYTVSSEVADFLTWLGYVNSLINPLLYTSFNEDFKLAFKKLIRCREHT
Excerpt: as §1

[5] = target: 5-hydroxytryptamine receptor 5A (Homo sapiens, UniProt P47898)
Chain of 5-hydroxytryptamine receptor 5A (P47898 whole entry): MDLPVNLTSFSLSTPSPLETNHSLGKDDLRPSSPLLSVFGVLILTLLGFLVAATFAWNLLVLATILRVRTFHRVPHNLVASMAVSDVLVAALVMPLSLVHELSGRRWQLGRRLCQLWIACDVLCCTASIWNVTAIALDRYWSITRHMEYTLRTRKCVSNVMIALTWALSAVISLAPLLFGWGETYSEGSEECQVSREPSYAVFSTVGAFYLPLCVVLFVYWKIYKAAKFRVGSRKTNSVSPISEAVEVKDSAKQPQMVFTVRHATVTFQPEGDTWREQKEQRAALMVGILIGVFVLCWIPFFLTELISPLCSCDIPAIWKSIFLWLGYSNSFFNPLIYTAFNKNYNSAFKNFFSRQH
Excerpt: as §1

Histamine H4 receptor = Histamine H4 receptor (Homo sapiens, UniProt Q9H3N8)
Chain of Histamine H4 receptor (Q9H3N8 whole entry): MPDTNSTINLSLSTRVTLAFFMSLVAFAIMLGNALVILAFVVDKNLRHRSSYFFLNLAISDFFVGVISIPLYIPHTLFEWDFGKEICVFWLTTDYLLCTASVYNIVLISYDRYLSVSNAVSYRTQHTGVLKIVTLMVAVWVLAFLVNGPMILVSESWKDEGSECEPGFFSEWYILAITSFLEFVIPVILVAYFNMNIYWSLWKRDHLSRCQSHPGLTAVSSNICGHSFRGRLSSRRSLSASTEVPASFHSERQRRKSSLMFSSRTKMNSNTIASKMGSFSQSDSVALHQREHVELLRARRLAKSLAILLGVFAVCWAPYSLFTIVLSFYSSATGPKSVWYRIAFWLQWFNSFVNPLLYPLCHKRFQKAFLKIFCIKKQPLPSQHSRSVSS
Excerpt: as §1

[6] = target: 5-hydroxytryptamine receptor 6 (Homo sapiens, UniProt P50406)
Chain of 5-hydroxytryptamine receptor 6 (P50406 whole entry): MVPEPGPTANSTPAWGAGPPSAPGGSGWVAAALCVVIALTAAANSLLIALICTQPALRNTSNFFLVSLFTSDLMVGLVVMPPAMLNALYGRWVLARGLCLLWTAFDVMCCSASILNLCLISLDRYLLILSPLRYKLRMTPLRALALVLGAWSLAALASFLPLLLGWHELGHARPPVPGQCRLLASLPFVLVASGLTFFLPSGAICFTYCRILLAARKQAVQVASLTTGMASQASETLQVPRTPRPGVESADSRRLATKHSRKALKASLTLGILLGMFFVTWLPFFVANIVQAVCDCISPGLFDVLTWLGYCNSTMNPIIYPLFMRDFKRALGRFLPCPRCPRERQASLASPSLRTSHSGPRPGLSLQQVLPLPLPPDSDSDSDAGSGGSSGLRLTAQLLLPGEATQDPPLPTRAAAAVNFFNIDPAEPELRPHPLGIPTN
Excerpt: as §1

[7] = target: T2, Alpha-2A adrenergic receptor (Homo sapiens, UniProt P08913)
T2 sequence (P08913 whole entry): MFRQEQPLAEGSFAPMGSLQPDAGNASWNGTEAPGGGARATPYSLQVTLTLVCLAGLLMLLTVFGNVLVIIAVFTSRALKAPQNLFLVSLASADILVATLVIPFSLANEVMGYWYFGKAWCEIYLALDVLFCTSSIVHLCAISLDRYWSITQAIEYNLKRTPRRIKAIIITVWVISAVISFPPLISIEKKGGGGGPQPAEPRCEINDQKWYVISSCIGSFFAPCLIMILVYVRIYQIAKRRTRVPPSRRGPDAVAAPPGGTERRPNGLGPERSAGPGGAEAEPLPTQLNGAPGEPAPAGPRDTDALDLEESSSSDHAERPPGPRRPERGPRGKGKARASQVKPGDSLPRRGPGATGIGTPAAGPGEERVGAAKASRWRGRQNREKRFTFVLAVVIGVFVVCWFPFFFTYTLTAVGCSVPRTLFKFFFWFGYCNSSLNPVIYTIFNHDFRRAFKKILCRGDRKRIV
Excerpt: as §1

[8] = target: 5-hydroxytryptamine receptor 2A (Homo sapiens, UniProt P28223)
Excerpt: as §1

D(1A) dopamine receptor = D(1A) dopamine receptor (Homo sapiens, UniProt P21728)
Chain of D(1A) dopamine receptor (P21728 whole entry): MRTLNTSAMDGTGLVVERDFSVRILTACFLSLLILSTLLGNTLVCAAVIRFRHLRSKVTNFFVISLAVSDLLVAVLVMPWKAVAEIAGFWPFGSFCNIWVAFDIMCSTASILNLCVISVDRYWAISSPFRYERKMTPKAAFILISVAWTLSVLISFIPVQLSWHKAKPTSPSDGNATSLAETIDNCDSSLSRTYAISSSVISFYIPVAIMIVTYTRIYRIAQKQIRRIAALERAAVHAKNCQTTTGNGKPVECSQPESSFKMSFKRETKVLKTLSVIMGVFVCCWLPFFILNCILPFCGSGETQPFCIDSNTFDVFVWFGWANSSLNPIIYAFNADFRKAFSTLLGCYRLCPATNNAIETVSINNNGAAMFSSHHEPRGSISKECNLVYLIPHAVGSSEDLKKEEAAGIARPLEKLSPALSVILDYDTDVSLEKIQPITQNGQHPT
Excerpt: as §1

[9] = target: T3, Alpha-1A adrenergic receptor (Homo sapiens, UniProt P35348)
T3 sequence (P35348 whole entry): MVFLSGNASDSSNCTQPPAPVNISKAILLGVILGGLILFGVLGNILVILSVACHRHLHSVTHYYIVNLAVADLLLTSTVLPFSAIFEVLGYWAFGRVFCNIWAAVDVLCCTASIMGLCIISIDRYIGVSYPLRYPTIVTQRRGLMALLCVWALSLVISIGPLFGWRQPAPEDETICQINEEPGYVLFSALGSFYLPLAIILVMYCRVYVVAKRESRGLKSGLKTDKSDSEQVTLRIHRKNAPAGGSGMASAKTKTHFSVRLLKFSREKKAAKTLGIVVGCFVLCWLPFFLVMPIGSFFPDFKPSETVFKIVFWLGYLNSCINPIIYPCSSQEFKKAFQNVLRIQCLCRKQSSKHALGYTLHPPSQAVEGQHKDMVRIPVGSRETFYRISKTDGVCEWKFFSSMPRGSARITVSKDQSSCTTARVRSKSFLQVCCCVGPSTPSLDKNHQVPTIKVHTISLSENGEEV
Excerpt: as §1

Histamine H2 receptor = Histamine H2 receptor (Homo sapiens, UniProt P25021)
Chain of Histamine H2 receptor (P25021 whole entry): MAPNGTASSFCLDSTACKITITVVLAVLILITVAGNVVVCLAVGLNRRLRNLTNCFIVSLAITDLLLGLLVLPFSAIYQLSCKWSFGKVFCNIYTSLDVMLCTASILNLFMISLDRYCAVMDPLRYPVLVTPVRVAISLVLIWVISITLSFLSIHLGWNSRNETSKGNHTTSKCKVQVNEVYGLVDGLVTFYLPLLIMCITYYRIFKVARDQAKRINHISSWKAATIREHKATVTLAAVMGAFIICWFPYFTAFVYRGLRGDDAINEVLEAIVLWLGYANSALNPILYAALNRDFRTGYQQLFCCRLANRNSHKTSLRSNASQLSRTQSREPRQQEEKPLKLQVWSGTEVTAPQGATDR
Excerpt: as §1

D(1B) dopamine receptor = D(1B) dopamine receptor (Homo sapiens, UniProt P21918)
Chain of D(1B) dopamine receptor (P21918 whole entry): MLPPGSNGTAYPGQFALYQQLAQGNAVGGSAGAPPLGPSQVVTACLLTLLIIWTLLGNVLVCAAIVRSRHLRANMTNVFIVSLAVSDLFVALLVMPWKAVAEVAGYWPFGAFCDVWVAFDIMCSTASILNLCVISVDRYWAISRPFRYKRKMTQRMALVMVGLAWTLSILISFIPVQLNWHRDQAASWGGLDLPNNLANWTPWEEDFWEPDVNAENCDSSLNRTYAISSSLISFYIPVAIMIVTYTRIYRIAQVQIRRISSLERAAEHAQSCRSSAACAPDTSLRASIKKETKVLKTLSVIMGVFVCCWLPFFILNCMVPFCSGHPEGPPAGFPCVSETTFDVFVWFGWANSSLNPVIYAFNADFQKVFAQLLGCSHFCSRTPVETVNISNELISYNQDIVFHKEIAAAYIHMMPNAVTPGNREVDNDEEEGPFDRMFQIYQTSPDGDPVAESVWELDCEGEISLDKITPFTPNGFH
Excerpt: as §1

[10] = target: Sodium-dependent serotonin transporter (Homo sapiens, UniProt P31645)
Chain of Sodium-dependent serotonin transporter (P31645 whole entry): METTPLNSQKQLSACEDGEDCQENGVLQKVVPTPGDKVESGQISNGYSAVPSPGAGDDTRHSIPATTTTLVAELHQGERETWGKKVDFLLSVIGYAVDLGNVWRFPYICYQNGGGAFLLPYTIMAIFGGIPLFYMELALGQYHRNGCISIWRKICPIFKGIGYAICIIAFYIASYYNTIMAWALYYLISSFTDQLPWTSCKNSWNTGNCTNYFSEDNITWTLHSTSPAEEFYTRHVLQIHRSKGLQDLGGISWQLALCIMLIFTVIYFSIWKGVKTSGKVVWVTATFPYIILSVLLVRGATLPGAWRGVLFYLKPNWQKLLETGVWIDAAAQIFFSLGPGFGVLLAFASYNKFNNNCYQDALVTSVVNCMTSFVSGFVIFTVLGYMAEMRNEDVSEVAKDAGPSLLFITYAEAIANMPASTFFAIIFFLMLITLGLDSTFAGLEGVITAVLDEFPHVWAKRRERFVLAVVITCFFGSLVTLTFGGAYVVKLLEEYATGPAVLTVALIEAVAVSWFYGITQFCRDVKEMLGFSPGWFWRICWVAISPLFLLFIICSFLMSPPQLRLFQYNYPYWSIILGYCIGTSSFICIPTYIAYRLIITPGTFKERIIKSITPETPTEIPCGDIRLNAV
Excerpt: as §1

[11] = target: T4, 5-hydroxytryptamine receptor 1A (Homo sapiens, UniProt P08908)
T4 sequence (P08908 whole entry): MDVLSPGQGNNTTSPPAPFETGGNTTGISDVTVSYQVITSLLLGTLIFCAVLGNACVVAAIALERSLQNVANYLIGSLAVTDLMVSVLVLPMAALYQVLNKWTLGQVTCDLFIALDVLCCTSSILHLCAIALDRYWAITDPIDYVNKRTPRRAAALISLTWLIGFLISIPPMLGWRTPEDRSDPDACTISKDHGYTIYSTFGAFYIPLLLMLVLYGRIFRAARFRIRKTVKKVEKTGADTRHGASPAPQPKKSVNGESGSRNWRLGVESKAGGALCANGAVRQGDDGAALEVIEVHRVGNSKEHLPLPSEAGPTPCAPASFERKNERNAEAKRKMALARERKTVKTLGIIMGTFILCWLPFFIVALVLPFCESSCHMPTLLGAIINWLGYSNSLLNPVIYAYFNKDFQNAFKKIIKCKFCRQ
Excerpt: as §1

[12] = target: Sodium-dependent dopamine transporter (Homo sapiens, UniProt Q01959)
Chain of Sodium-dependent dopamine transporter (Q01959 whole entry): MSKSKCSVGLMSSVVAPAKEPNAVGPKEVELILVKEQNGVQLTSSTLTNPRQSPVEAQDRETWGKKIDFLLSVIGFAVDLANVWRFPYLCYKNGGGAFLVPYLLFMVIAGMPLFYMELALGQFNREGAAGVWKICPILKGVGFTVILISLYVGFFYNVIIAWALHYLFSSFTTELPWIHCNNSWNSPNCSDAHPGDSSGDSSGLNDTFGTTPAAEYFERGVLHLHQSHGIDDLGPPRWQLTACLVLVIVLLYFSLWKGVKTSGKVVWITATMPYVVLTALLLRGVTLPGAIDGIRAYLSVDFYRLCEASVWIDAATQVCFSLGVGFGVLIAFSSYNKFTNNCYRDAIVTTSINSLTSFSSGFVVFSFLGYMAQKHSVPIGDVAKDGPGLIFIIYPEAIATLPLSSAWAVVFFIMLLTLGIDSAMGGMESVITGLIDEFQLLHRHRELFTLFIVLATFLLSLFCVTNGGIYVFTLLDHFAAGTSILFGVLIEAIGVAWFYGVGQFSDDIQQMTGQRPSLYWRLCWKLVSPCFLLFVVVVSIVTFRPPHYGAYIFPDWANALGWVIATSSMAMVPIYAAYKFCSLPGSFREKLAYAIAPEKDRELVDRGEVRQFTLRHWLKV
Excerpt: as §1

Chain of Sodium-dependent noradrenaline transporter (P23975 whole entry): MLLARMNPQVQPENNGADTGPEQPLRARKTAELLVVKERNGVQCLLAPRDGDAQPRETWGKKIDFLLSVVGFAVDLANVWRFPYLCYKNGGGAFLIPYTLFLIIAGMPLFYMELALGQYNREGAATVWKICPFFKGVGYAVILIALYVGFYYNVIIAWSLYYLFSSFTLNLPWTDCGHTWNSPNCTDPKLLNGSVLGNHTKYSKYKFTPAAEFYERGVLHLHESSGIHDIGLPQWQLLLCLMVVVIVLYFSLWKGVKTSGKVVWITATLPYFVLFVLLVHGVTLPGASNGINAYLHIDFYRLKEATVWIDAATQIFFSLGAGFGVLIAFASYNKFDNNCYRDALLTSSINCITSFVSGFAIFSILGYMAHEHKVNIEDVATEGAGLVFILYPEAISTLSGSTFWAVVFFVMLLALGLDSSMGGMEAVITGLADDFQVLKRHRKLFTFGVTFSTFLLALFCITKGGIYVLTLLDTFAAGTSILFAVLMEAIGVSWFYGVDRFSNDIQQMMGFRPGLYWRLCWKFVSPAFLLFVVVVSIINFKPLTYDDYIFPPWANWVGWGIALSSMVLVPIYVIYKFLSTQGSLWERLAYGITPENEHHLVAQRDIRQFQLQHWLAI

Compound | Ki [1] | Ki [2] | Ki (D(2) dopamine receptor) | Ki [3] | Ki [4] | Ki [5] | Ki (Histamine H4 receptor) | Ki [6] | Ki [7] | Ki [8] | Ki (D(1A) dopamine receptor) | Ki [9] | Ki (Histamine H2 receptor) | Ki (D(1B) dopamine receptor) | Ki [10] | Ki [11] | Ki [12]
CAS_82830-44-2::(2R)-1-(4-iodo-2,5-dimethoxyphenyl)propan-2-amine::DOI,(-)::US20250270173, Compound DOI | > 10 µM | > 10 µM | > 10 µM | > 10 µM | 1.01 µM | > 10 µM | > 10 µM | 2.11 µM | 0.0737 µM | 0.165 µM | 9.69 µM | > 10 µM | > 10 µM | > 10 µM | 0.685 µM | 2.22 µM | > 10 µM
CCOc1cc(OC)c(CC(C)N)cc1OC (configuration not stated) | > 10 µM | > 10 µM | > 10 µM | > 10 µM | > 10 µM | > 10 µM | > 10 µM | > 10 µM | > 10 µM | 3.95 µM | > 10 µM | > 10 µM | > 10 µM | > 10 µM | > 10 µM | > 10 µM | > 10 µM
COc1ccc2[nH]cc(CCN(C(C)C)C(C)C)c2c1 [5-meo-dipt] | > 10 µM | > 10 µM | > 10 µM | > 10 µM | > 10 µM | > 10 µM | > 10 µM | > 10 µM | > 10 µM |  | > 10 µM | > 10 µM | > 10 µM | > 10 µM | 2.53 µM | 0.132 µM | > 10 µM
COc1cc(CCN)cc(OC)c1OC [3,4,5-trimethoxyphenylethylamine] | > 10 µM | > 10 µM | > 10 µM | > 10 µM | 5.2 µM | > 10 µM | > 10 µM | > 10 µM | 8.93 µM | > 10 µM | > 10 µM | > 10 µM | > 10 µM | > 10 µM | > 10 µM | 1.84 µM | > 10 µM
CCc1cc(OC)c(CC(C)N)cc1OC (configuration not stated) | > 10 µM | > 10 µM | > 10 µM | > 10 µM | 3.55 µM | > 10 µM | > 10 µM | > 10 µM | 1.28 µM | 0.0273 µM | > 10 µM | > 10 µM | > 10 µM | > 10 µM | > 10 µM | 0.0144 µM | > 10 µM
COc1cc(CC(C)N)cc(OC)c1OC (configuration not stated) | > 10 µM | > 10 µM | > 10 µM | > 10 µM | 3.37 µM | > 10 µM | > 10 µM | > 10 µM | 2.07 µM | > 10 µM | > 10 µM | > 10 µM | > 10 µM | > 10 µM | > 10 µM | 1.68 µM | > 10 µM
CCc1cc(OC)c(CCN)cc1OC [2-(2,5-dimethoxy-4-ethylphenyl)ethylamine] | > 10 µM | > 10 µM | 3.34 µM | > 10 µM | 0.626 µM | > 10 µM | > 10 µM | 2.97 µM | 0.49 µM | 0.0439 µM | > 10 µM | > 10 µM | > 10 µM | > 10 µM | > 10 µM |  | > 10 µM
CN(C)CCc1c[nH]c2cc(F)ccc12 [6-f-dmt] | > 10 µM | > 10 µM | 0.61 µM | > 10 µM | 0.461 µM | 0.96 µM | > 10 µM | 0.0256 µM | > 10 µM |  | 0.547 µM | 0.173 µM | 0.925 µM | 6.29 µM | 0.145 µM | 0.393 µM | > 10 µM
CCSc1cc(OC)c(CC(N)CC)cc1OC (configuration not stated) [1-(4-Ethylsulfanyl-2,5-dimethoxy-benzyl)-propylamine] | > 10 µM | > 10 µM | > 10 µM | > 10 µM | 9.88 µM | 1.59 µM | > 10 µM | > 10 µM | > 10 µM | 0.274 µM | > 10 µM | > 10 µM | > 10 µM | > 10 µM | > 10 µM | 5.34 µM | > 10 µM
COc1ccc2[nH]cc(CCN(C)C(C)C)c2c1 [5-meo-mipt] | > 10 µM | > 10 µM | > 10 µM | > 10 µM | 3.5 µM | 0.953 µM | > 10 µM | 0.13 µM | 0.175 µM | 0.448 µM | > 10 µM | > 10 µM | > 10 µM | > 10 µM | 6.41 µM | 0.0123 µM | > 10 µM
COc1cc(CC(C)N)c(OC)cc1C (stereo not drawn) [(+/-)2-(2,5-Dimethoxy-4-methyl-phenyl)-1-methyl-ethylamine] | > 10 µM | > 10 µM | > 10 µM | > 10 µM | 3.54 µM | > 10 µM | > 10 µM | 8.15 µM | 0.58 µM | 0.507 µM | > 10 µM | 3.22 µM | > 10 µM | > 10 µM | > 10 µM | 3.66 µM | > 10 µM
CCCN(CCC)CCc1c[nH]c2ccccc12 [dpt] | > 10 µM | > 10 µM | 9.25 µM | > 10 µM | 2.34 µM | 4.37 µM | > 10 µM | 4.54 µM | 0.458 µM | 2.58 µM | > 10 µM | 0.881 µM | > 10 µM | > 10 µM | 0.157 µM | 0.0318 µM | 1.5 µM
COc1cc(CC(C)N)c(OC)cc1Br (stereo not drawn) [2-(4-Bromo-2,5-dimethoxy-phenyl)-1-methyl-ethylamine((-)-DOB)] | > 10 µM | > 10 µM | > 10 µM | > 10 µM | 1.43 µM | 5.31 µM | > 10 µM | 5.53 µM | 4.27 µM |  | > 10 µM | > 10 µM | > 10 µM | > 10 µM | 8.54 µM | 2.55 µM | > 10 µM
